Measured values taken from US20230192878A1, “METHODS, THERAPIES AND USES FOR TREATING CANCER” (PFIZER INC., priority 2020, published 2023).

Columns and labels:
Molp8 [1] = assay: Soluble BCMA (sBCMA) shedding after GSI (ELISA); format: cell-based, Human; set-up: unit not given here; settings: Table 6 (sBCMA in supernatant, ELISA), 24 hours
MM.1S = assay: Soluble BCMA (sBCMA) shedding after GSI (ELISA); format: cell-based, Human; set-up: unit not given here; settings: Table 6 (sBCMA in supernatant, ELISA), 24 hours
OPM2 = assay: Cell surface BCMA expression after GSI, concentration series; format: cell-based; settings: 24 hours
Method: (§1) Multiple myeloma cells (MM.1S, OPM2, H929, Molp8, RPMI8226) were seeded in a 96-well U bottom plate at 40,000 cells/well. Cells were incubated for 24 hours in the presence of GSI diluted in RPMI (0.1% DMSO). The following concentrations of the GSI were tested: 1000 nM, 500 nM, 100 nM, 50 nM, 25 nM, 10 nM, 5 nM, 2.5 nM, 1 nM, 0.1 nM, 0.01 nM. 24 hours later cells were collected and washed with PBS+2% FBS, followed by staining with ZombieNIR Viability Dye (Biolegend) at 1 in 500 dilution in PBS at room temperature for 20 minutes. Next, cells were washed with PBS+2% FBS and stained with anti-BCMA PE-labelled antibody (Biolegend) diluted in PBS+2% FBS for 30 minutes at 4° C. Cells were acquired on BD Flow Cytometer and analyzed using FlowJo flow cytometry analysis software. Dead cells were removed from analysis by gating on ZombieNIR negative population. BCMA mean fluorescence intensity (MFI) was plotted against GSI concentration to establish EC50.

Molp8 [2] = assay: as above; format: cell-based; settings: 24 hours
Method: as §1

[3] = Preliminary pharmacokinetic (PK) analysis, Phase 1 study; format: in vivo, human
Method: Therefore, a fixed dose is suitable for the dosing of PF-06863135. Based on the encouraging efficacy data and safety data obtained from Part I of Study, a promising RP2D for Part 2A of the study could be a fixed dose equivalent of 1000 μg/kg (i.e., 76 mg) of PF-06863135 either in Q1W or Q2W. A fixed dose equivalent of 600 μg/kg (ie, 44 mg) will likely be used as a priming dose on cycle zero day 1. The initial dose of 44 mg serves as a priming dose and is designed to mitigate the CRS symptoms of the later 76 mg dose. […] Subsequently, the 44 mg (priming) and 76 mg (maintenance) were selected as the single agent RP2D dose. Patient will be administered a single priming dose of 44 mg SC of PF06863135, followed by maintenance dosing of 76 mg Q1W SC or 76 mg Q2W starting 7 days after the single priming dose.

MM.1S-Luc-PD-L1 = assay: Orthotopic MM.1S-Luc-PD-L1 multiple myeloma mouse model; format: in vivo, NSG mice; settings: bispecific 10 μg/kg IV once (day 21), anti-PD-1 5 mg/kg IP twice a week
Method: MM.1 S-Luc multiple myeloma cells were engineered to express PD-L1 and are referred to as MM.1S-Luc-PD-L1. MM.1S-Luc-PD-L1 cells were prepared as a single cell suspension of 5×10^6 cells for intravenous (IV) inoculation into NSG mice.
Tumor growth was monitored by luminescent imaging by intraperitoneal (IP) injection of luciferin solution in DPBS and imaged using Perkin Elmer IVIS Spectrum camera system. Animals were administered 2×10^7 expanded human T cells IV 19 days after tumor cell inoculation. Two days following T cell administration, a single dose of the BCMAxCD3 bispecific (10 μg/kg) was administered as a bolus IV injection. Anti-PD-1 antibody was administered twice a week as a bolus IP injection at 5 mg/kg for a total of 6 injections.
Tumor growth was monitored via imaging measurements collected twice weekly. Mice were imaged using the Perkin Elmer IVIS Spectrum camera system with automatic parameter determination and a maximum imaging time of 3 minutes. Living Image software was used to collect the data. Regions of Interest (ROIs) were drawn around the entire body of the mouse, excluding as much as possible of the tail. Background flux, as measured on the anesthesia manifold, is subtracted from each ROI. Tumor measurements are expressed as total flux expressed in photons/sec (p/s). Study was terminated at day 40 post tumor inoculation.

CCC[C@H](N[C@H]1CCc2cc(F)cc(F)c2C1)C(=O)Nc1cn(C(C)(C)CNCC(C)(C)C)cn1 [GSI, nirogacestat]
BCMA (-PE) MFI (Molp8 [1]; Molp8, GSI 0.01 nM): 6887.3 | BCMA (-PE) MFI (Molp8 [1]; Molp8, GSI 0.1 nM): 6363.4 | BCMA (-PE) MFI (Molp8 [1]; Molp8, GSI 1 nM): 6072.9 | BCMA (-PE) MFI (Molp8 [1]; Molp8, GSI 2.5 nM): 6765.5 | BCMA (-PE) MFI (Molp8 [1]; Molp8, GSI 5 nM): 5989.3 | BCMA (-PE) MFI (Molp8 [1]; Molp8, GSI 10 nM): 5958.9 | BCMA (-PE) MFI (Molp8 [1]; Molp8, GSI 25 nM): 3021.7 | BCMA (-PE) MFI (Molp8 [1]; Molp8, GSI 50 nM): 1044.3 | BCMA (-PE) MFI (Molp8 [1]; Molp8, GSI 100 nM): 431.8 | BCMA (-PE) MFI (Molp8 [1]; Molp8, GSI 500 nM): 87.3 | BCMA (-PE) MFI (Molp8 [1]; Molp8, GSI 1000 nM): 51.6 | BCMA (-PE) MFI (MM.1S; GSI 0.01 nM): 3794.2 | BCMA (-PE) MFI (MM.1S; GSI 0.1 nM): 5797.5 | BCMA (-PE) MFI (MM.1S; GSI 1 nM): 5143.1 | BCMA (-PE) MFI (MM.1S; GSI 2.5 nM): 3988.3 | BCMA (-PE) MFI (MM.1S; GSI 5 nM): 2453.6 | BCMA (-PE) MFI (MM.1S; GSI 10 nM): 1661.5 | BCMA (-PE) MFI (MM.1S; GSI 25 nM): 630.5 | BCMA (-PE) MFI (MM.1S; GSI 50 nM): 279.9 | BCMA (-PE) MFI (MM.1S; GSI 100 nM): 21.3 | BCMA (-PE) MFI (MM.1S; GSI 500 nM): 151.8 | BCMA (-PE) MFI (MM.1S; GSI 1000 nM): 350 | BCMA (-PE) MFI (OPM2; OPM2, GSI 0.01 nM): 2093.5 | BCMA (-PE) MFI (OPM2; OPM2, GSI 0.1 nM): 2079.5 | BCMA (-PE) MFI (OPM2; OPM2, GSI 1 nM): 2185 | BCMA (-PE) MFI (OPM2; OPM2, GSI 2.5 nM): 2358.5 | BCMA (-PE) MFI (OPM2; OPM2, GSI 5 nM): 2788.5 | BCMA (-PE) MFI (OPM2; OPM2, GSI 10 nM): 3190.5 | BCMA (-PE) MFI (OPM2; OPM2, GSI 25 nM): 6575.5 | BCMA (-PE) MFI (OPM2; OPM2, GSI 50 nM): 10863 | BCMA (-PE) MFI (OPM2; OPM2, GSI 100 nM): 14364 | BCMA (-PE) MFI (OPM2; OPM2, GSI 500 nM): 15910.5 | BCMA (-PE) MFI (OPM2; OPM2, GSI 1000 nM): 14747.5 | BCMA (-PE) MFI (Molp8 [2]; Molp8, GSI 0.01 nM): 1191.5 | BCMA (-PE) MFI (Molp8 [2]; Molp8, GSI 0.1 nM): 1242.5 | BCMA (-PE) MFI (Molp8 [2]; Molp8, GSI 1 nM): 1288.5 | BCMA (-PE) MFI (Molp8 [2]; Molp8, GSI 2.5 nM): 1401 | BCMA (-PE) MFI (Molp8 [2]; Molp8, GSI 5 nM): 1761.5 | BCMA (-PE) MFI (Molp8 [2]; Molp8, GSI 10 nM): 2183.5 | BCMA (-PE) MFI (Molp8 [2]; Molp8, GSI 25 nM): 3691 | BCMA (-PE) MFI (Molp8 [2]; Molp8, GSI 50 nM): 5120 | BCMA (-PE) MFI (Molp8 [2]; Molp8, GSI 100 nM): 5412 | BCMA (-PE) MFI (Molp8 [2]; Molp8, GSI 500 nM): 5640.5 | BCMA (-PE) MFI (Molp8 [2]; Molp8, GSI 1000 nM): 6401

PF-06863135: heterodimeric humanized full-length bispecific antibody with one BCMA binding arm and one CD3 binding arm
Effect of body weight on PF-06863135 exposure [3]: not a clinically relevant factor | Tumor measurements expressed as total flux (MM.1S-Luc-PD-L1; day 15 post tumor cell inoculation): 1.513 × 10^7 p/s | Tumor measurements expressed as total flux (MM.1S-Luc-PD-L1; day 18 post tumor cell inoculation): 8.343 × 10^7 p/s | Tumor measurements expressed as total flux (MM.1S-Luc-PD-L1; day 20 post tumor cell inoculation): 1.788 × 10^8 p/s | Tumor measurements expressed as total flux (MM.1S-Luc-PD-L1; day 25 post tumor cell inoculation): 2.2729 × 10^7 p/s | Tumor measurements expressed as total flux (MM.1S-Luc-PD-L1; day 28 post tumor cell inoculation): 7.082 × 10^7 p/s | Tumor measurements expressed as total flux (MM.1S-Luc-PD-L1; day 32 post tumor cell inoculation): 7.076 × 10^7 p/s
